Data reported in patent US20230085307A1, “PYRIDAZINONE COMPOUND AND HERBICIDE” (NISSAN CHEMICAL CORPORATION, priority 2019, published 2023).

Experiments:
barnyard grass [1] = test: Test Example 3: herbicidal effect by foliage application, Wagner pot (Table 18, symbol H); format: in vivo, barnyard grass (Echinochloa crus-galli); conditions: amount of applied herbicide 320 g/ha
Summary of the method: (§1)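 Plants were sown in alluvial soil held under 0.1–0.5 cm standing water and grown 14 days in a greenhouse at 25–30 °C. An emulsifiable formulation, water-diluted to the set dose, was then sprayed onto the foliage, and effects were scored three weeks later using previously defined criteria.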

Chinese sprangletop = test: Test Example 3: herbicidal effect by foliage application, Wagner pot (Table 18, symbol D); format: in vivo, chinese sprangletop (Leptochloa chinensis); conditions: amount of applied herbicide 320 g/ha
Summary of the method: as §1

rice flat sedge = test: Test Example 3: herbicidal effect by foliage application, Wagner pot (Table 18, symbol E); format: in vivo, rice flat sedge (Cyperus iria); conditions: amount of applied herbicide 320 g/ha
Summary of the method: as §1

southern crabgrass [2] = test: Test Example 4: herbicidal effect by soil treatment (Table 19, symbol F); format: in vivo, southern crabgrass (Digitaria ciliaris); conditions: amount of applied herbicide 320 g/ha
Summary of the method: (§2)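 Herbicidal effect was rated 3 weeks after treatment, using the scoring criteria of an earlier test. The compound, formulated as an emulsion and diluted in water to a set herbicide amount, had been sprayed uniformly on soil over freshly sown seeds. Growth took place in a greenhouse at 25° C. to 30° C.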

green foxtail [3] = test: Test Example 4: herbicidal effect by soil treatment (Table 19, symbol G); format: in vivo, green foxtail (Setaria viridis); conditions: amount of applied herbicide 320 g/ha
Summary of the method: as §2

barnyard grass [4] = test: Test Example 4: herbicidal effect by soil treatment (Table 19, symbol H); format: in vivo, barnyard grass (Echinochloa crus-galli); conditions: amount of applied herbicide 320 g/ha
Summary of the method: as §2

wild oat [5] = test: Test Example 4: herbicidal effect by soil treatment (Table 19, symbol I); format: in vivo, wild oat (Avena fatua); conditions: amount of applied herbicide 320 g/ha
Summary of the method: as §2

blackgrass [6] = test: Test Example 4: herbicidal effect by soil treatment (Table 19, symbol J); format: in vivo, blackgrass (Alopecurus myosuroides); conditions: amount of applied herbicide 320 g/ha
Summary of the method: as §2

Italian ryegrass [7] = test: Test Example 4: herbicidal effect by soil treatment (Table 19, symbol K); format: in vivo, Italian ryegrass (Lolium multiflorum); conditions: amount of applied herbicide 320 g/ha
Summary of the method: as §2

windgrass [8] = test: Test Example 4: herbicidal effect by soil treatment (Table 19, symbol L); format: in vivo, windgrass (Apera spica-venti); conditions: amount of applied herbicide 320 g/ha
Summary of the method: as §2

velvetleaf [9] = test: Test Example 4: herbicidal effect by soil treatment (Table 19, symbol M); format: in vivo, velvetleaf (Abutilon theophrasti); conditions: amount of applied herbicide 320 g/ha
Summary of the method: as §2

redroot pigweed [10] = test: Test Example 4: herbicidal effect by soil treatment (Table 19, symbol N); format: in vivo, redroot pigweed (Amaranthus retroflexus); conditions: amount of applied herbicide 320 g/ha
Summary of the method: as §2

lambsquarters [11] = test: Test Example 4: herbicidal effect by soil treatment (Table 19, symbol O); format: in vivo, lambsquarters (Chenopodium album); conditions: amount of applied herbicide 320 g/ha
Summary of the method: as §2

chickweed [12] = test: Test Example 4: herbicidal effect by soil treatment (Table 19, symbol P); format: in vivo, common chickweed (Stellaria media); conditions: amount of applied herbicide 320 g/ha
Summary of the method: as §2

false cleavers = test: Test Example 4: herbicidal effect by soil treatment (Table 19, symbol Q); format: in vivo, false cleavers (Galium spurium); conditions: amount of applied herbicide 320 g/ha
Summary of the method: as §2

persian speedwell [13] = test: Test Example 4: herbicidal effect by soil treatment (Table 19, symbol R); format: in vivo, Persian speedwell (Veronica persica); conditions: amount of applied herbicide 320 g/ha
Summary of the method: as §2

southern crabgrass [14] = test: Test Example 5: herbicidal effect by foliage application, plastic box (Table 20, symbol F); format: in vivo, southern crabgrass (Digitaria ciliaris); conditions: foliage application, 320 g/ha, evaluated three weeks after application
Summary of the method: (§3)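 Foliar spray test: emulsion formulation diluted in water to a set application rate, sprayed onto 14-day-old plants raised in diluvial soil at 25° C to 30° C under glass. Both herbicidal effect and crop effect rated visually three weeks later.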

green foxtail [15] = test: Test Example 5: herbicidal effect by foliage application, plastic box (Table 20, symbol G); format: in vivo, green foxtail (Setaria viridis); conditions: foliage application, 320 g/ha, evaluated three weeks after application
Summary of the method: as §3

barnyard grass [16] = test: Test Example 5: herbicidal effect by foliage application, plastic box (Table 20, symbol H); format: in vivo, barnyard grass (Echinochloa crus-galli); conditions: foliage application, 320 g/ha, evaluated three weeks after application
Summary of the method: as §3

wild oat [17] = test: Test Example 5: herbicidal effect by foliage application, plastic box (Table 20, symbol I); format: in vivo, wild oat (Avena fatua); conditions: foliage application, 320 g/ha, evaluated three weeks after application
Summary of the method: as §3

blackgrass [18] = test: Test Example 5: herbicidal effect by foliage application, plastic box (Table 20, symbol J); format: in vivo, blackgrass (Alopecurus myosuroides); conditions: foliage application, 320 g/ha, evaluated three weeks after application
Summary of the method: as §3

Italian ryegrass [19] = test: Test Example 5: herbicidal effect by foliage application, plastic box (Table 20, symbol K); format: in vivo, Italian ryegrass (Lolium multiflorum); conditions: foliage application, 320 g/ha, evaluated three weeks after application
Summary of the method: as §3

windgrass [20] = test: Test Example 5: herbicidal effect by foliage application, plastic box (Table 20, symbol L); format: in vivo, windgrass (Apera spica-venti); conditions: foliage application, 320 g/ha, evaluated three weeks after application
Summary of the method: as §3

velvetleaf [21] = test: Test Example 5: herbicidal effect by foliage application, plastic box (Table 20, symbol M); format: in vivo, velvetleaf (Abutilon theophrasti); conditions: foliage application, 320 g/ha, evaluated three weeks after application
Summary of the method: as §3

redroot pigweed [22] = test: Test Example 5: herbicidal effect by foliage application, plastic box (Table 20, symbol N); format: in vivo, redroot pigweed (Amaranthus retroflexus); conditions: foliage application, 320 g/ha, evaluated three weeks after application
Summary of the method: as §3

lambsquarters [23] = test: Test Example 5: herbicidal effect by foliage application, plastic box (Table 20, symbol O); format: in vivo, lambsquarters (Chenopodium album); conditions: foliage application, 320 g/ha, evaluated three weeks after application
Summary of the method: as §3

chickweed [24] = test: Test Example 5: herbicidal effect by foliage application, plastic box (Table 20, symbol P); format: in vivo, common chickweed (Stellaria media); conditions: foliage application, 320 g/ha, evaluated three weeks after application
Summary of the method: as §3

persian speedwell [25] = test: Test Example 5: herbicidal effect by foliage application, plastic box (Table 20, symbol R); format: in vivo, Persian speedwell (Veronica persica); conditions: foliage application, 320 g/ha, evaluated three weeks after application
Summary of the method: as §3

Compound	herbicidal effect on H: barnyard grass (barnyard grass [1])	herbicidal effect on D: Chinese sprangletop (Chinese sprangletop)	herbicidal effect on E: rice flat sedge (rice flat sedge)	F: southern crabgrass, herbicidal effect rating (southern crabgrass [2])	G: green foxtail, herbicidal effect rating (green foxtail [3])	H: barnyard grass, herbicidal effect rating (barnyard grass [4])	I: wild oat, herbicidal effect rating (wild oat [5])	J: blackgrass, herbicidal effect rating (blackgrass [6])	K: Italian ryegrass, herbicidal effect rating (Italian ryegrass [7])	L: windgrass, herbicidal effect rating (windgrass [8])	M: velvetleaf, herbicidal effect rating (velvetleaf [9])	N: redroot pigweed, herbicidal effect rating (redroot pigweed [10])	O: lambsquarters, herbicidal effect rating (lambsquarters [11])	P: chickweed, herbicidal effect rating (chickweed [12])	Q: false cleavers, herbicidal effect rating (false cleavers)	R: persian speedwell, herbicidal effect rating (persian speedwell [13])	other results
Cc1ccc2sc(-c3ccccc3)c(-c3c(O)c(C)nn(C)c3=O)c2c1 [2-132]	0 (Herbicidal rate of 5% or less (almost no effect))	0 (Herbicidal rate of 5% or less (almost no effect))	5 (Herbicidal rate of 90% or more (almost completely withered))	1 (Herbicidal rate of 5% or more and less than 20%)	3 (Herbicidal rate of 40% or more and less than 70%)	3 (Herbicidal rate of 40% or more and less than 70%)	0 (Herbicidal rate of 5% or less (almost no effect))	0 (Herbicidal rate of 5% or less (almost no effect))	2 (Herbicidal rate of 20% or more and less than 40%)	0 (Herbicidal rate of 5% or less (almost no effect))	0 (Herbicidal rate of 5% or less (almost no effect))	0 (Herbicidal rate of 5% or less (almost no effect))	5 (Herbicidal rate of 90% or more (almost completely withered))	4 (Herbicidal rate of 70% or more and less than 90%)	0 (Herbicidal rate of 5% or less (almost no effect))	3 (Herbicidal rate of 40% or more and less than 70%)	herbicidal effect on F: southern crabgrass (southern crabgrass [14]): 1 (Herbicidal rate of 5% or more and less than 20%); herbicidal effect on G: green foxtail (green foxtail [15]): 3 (Herbicidal rate of 40% or more and less than 70%); herbicidal effect on H: barnyard grass (barnyard grass [16]): 0 (Herbicidal rate of 5% or less (almost no effect)); herbicidal effect on I: wild oat (wild oat [17]): 0 (Herbicidal rate of 5% or less (almost no effect)); herbicidal effect on J: blackgrass (blackgrass [18]): 2 (Herbicidal rate of 20% or more and less than 40%); herbicidal effect on K: Italian ryegrass (Italian ryegrass [19]): 5 (Herbicidal rate of 90% or more (almost completely withered)); herbicidal effect on L: windgrass (windgrass [20]): 0 (Herbicidal rate of 5% or less (almost no effect)); herbicidal effect on M: velvetleaf (velvetleaf [21]): 3 (Herbicidal rate of 40% or more and less than 70%); herbicidal effect on N: redroot pigweed (redroot pigweed [22]): 5 (Herbicidal rate of 90% or more (almost completely withered)); herbicidal effect on O: lambsquarters (lambsquarters [23]): 4 (Herbicidal rate of 70% or more and less than 90%); herbicidal effect on P: chickweed (chickweed [24]): 5 (Herbicidal rate of 90% or more (almost completely withered)); herbicidal effect on R: persian speedwell (persian speedwell [25]): 5 (Herbicidal rate of 90% or more (almost completely withered))
Cc1ccc2sc(-c3ccc([N+](=O)[O-])cc3)c(-c3c(O)c(C)nn(C)c3=O)c2c1 [2-144]	2 (Herbicidal rate of 20% or more and less than 40%)	0 (Herbicidal rate of 5% or less (almost no effect))	3 (Herbicidal rate of 40% or more and less than 70%)	2 (Herbicidal rate of 20% or more and less than 40%)	0 (Herbicidal rate of 5% or less (almost no effect))	0 (Herbicidal rate of 5% or less (almost no effect))	0 (Herbicidal rate of 5% or less (almost no effect))	0 (Herbicidal rate of 5% or less (almost no effect))	0 (Herbicidal rate of 5% or less (almost no effect))	0 (Herbicidal rate of 5% or less (almost no effect))	0 (Herbicidal rate of 5% or less (almost no effect))	3 (Herbicidal rate of 40% or more and less than 70%)	3 (Herbicidal rate of 40% or more and less than 70%)	1 (Herbicidal rate of 5% or more and less than 20%)	0 (Herbicidal rate of 5% or less (almost no effect))	2 (Herbicidal rate of 20% or more and less than 40%)	herbicidal effect on F: southern crabgrass (criteria 0-5) (southern crabgrass [14]): 0 (Herbicidal rate of 5% or less (almost no effect)); herbicidal effect on G: green foxtail (criteria 0-5) (green foxtail [15]): 0 (Herbicidal rate of 5% or less (almost no effect)); herbicidal effect on H: barnyard grass (criteria 0-5) (barnyard grass [16]): 0 (Herbicidal rate of 5% or less (almost no effect)); herbicidal effect on I: wild oat (criteria 0-5) (wild oat [17]): 0 (Herbicidal rate of 5% or less (almost no effect)); herbicidal effect on J: blackgrass (criteria 0-5) (blackgrass [18]): 0 (Herbicidal rate of 5% or less (almost no effect)); herbicidal effect on K: Italian ryegrass (criteria 0-5) (Italian ryegrass [19]): 4 (Herbicidal rate of 70% or more and less than 90%); herbicidal effect on L: windgrass (criteria 0-5) (windgrass [20]): 0 (Herbicidal rate of 5% or less (almost no effect)); herbicidal effect on M: velvetleaf (criteria 0-5) (velvetleaf [21]): 2 (Herbicidal rate of 20% or more and less than 40%); herbicidal effect on N: redroot pigweed (criteria 0-5) (redroot pigweed [22]): 5 (Herbicidal rate of 90% or more (almost completely withered)); herbicidal effect on O: lambsquarters (criteria 0-5) (lambsquarters [23]): 3 (Herbicidal rate of 40% or more and less than 70%); herbicidal effect on P: chickweed (criteria 0-5) (chickweed [24]): 4 (Herbicidal rate of 70% or more and less than 90%); herbicidal effect on R: persian speedwell (criteria 0-5) (persian speedwell [25]): 5 (Herbicidal rate of 90% or more (almost completely withered))
